Consider 20 compounds from patent US7405220B2, “Pyrazolopyrimidines” (Hoffmann-La Roche Inc., priority 2004, dated 2008).

Each structure is given as a SMILES string.

One assay has as its target human cyclin D1-Cdk4 (Homo sapiens, UniProt P11802). As to the kind of experiment: Cdk4 FlashPlate kinase assay (Rb phosphorylation). The class given is biochemical. The conditions noted are these: recombinant cyclin D1-Cdk4, Rb substrate, 1 μM ATP. The method, then:
(§1) To determine inhibition of Cdk4, Cdk2 and Cdk1 activity, kinase assays were conducted using FlashPlate™ assays (NEN™-Life Science Products). FlashPlate assays were performed using recombinant human cyclin B-Cdk1, human cyclin E-Cdk2 or human cyclin D1-Cdk4 complexes. GST-cyclinE (GST-cycE), Cdk2, GST-cyclinB (GST-cycB), Cdk1, GST-Cdk4 and cyclin D1 (cycD1) cDNA clones in baculovirus vectors were provided by Dr. W. Harper at the Baylor College of Medicine, Houston, Tex. Proteins were co-expressed in High Five™ insect cells and the complex was purified on glutathione Sepharose resin (Pharmacia, Piscataway, N.J.) as previously described (Harper, J. W. et al. Cell 1993, 75, 805-816). A 6×-Histidine tagged truncated form of retinoblastoma (Rb) protein (amino acid 386-928) was used as the substrate for the cycD1-Cdk4, cycB-Cdk1 and the cycE-Cdk2 assays (the expression plasmid was provided by Dr. Veronica Sullivan, Department of Molecular Virology, Roche Research Centre, Welwyn Garden City, United Kingdom). The Rb protein is a natural substrate for phosphorylation by Cdk4, Cdk2 and Cdk1 (see Herwig and Strauss Eur. J. Biochem. Vol. 246 (1997) pp. 581-601 and the references cited therein).
(§2) The expression of the 62 Kd protein was under the control of an IPTG inducible promoter in an M15 E. coli strain. Cells were lysed by sonication and purification was carried out by binding lysates at pH 8.0 to a Ni-chelated agarose column pretreated with 1 mM imidazole. The resin was then washed several times with incrementally decreasing pH buffers to pH 6.0, and eluted with 500 mM imidazole. Eluted protein was dialysed against 20 mM HEPES pH 7.5, 30% glycerol, 200 mM NaCl, and 1 mM DTT. Purified Rb fusion protein stocks were quantitated for protein concentration, aliquoted, and stored at −70° C.
(§3) For all three kinase assays reported herein, 96-well FlashPlates were coated with Rb protein at 10 μg/ml, using 100 μl per well. Plates were incubated at 4° C. overnight or at room temperature for 3 hours on a shaker. To control for nonspecific phosphorylation, one row of wells was coated with 100 μl/well coating buffer (20 mM HEPES, 0.2 M NaCl). Plates were then washed twice with wash buffer (0.01% Tween 20 in phosphate-buffered saline). Compounds to be tested (“test compounds”) were added to the wells at 5× final concentration. Reactions were initiated by immediate addition of 40 μl reaction mix (25 mM HEPES, 20 mM MgCl2, 0.002% Tween 20, 2 mM DTT, 1 μM ATP, 4 nM 33P-ATP) and a sufficient amount of enzyme to give counts that were at least 10-fold above background. Plates were incubated at room temperature on a shaker for 30 minutes. Plates were washed four times with the wash buffer, sealed, and counted on the TopCount scintillation counter (Packard Instrument Co., Downers Grove, Ill.]. The percent inhibition of Rb phosphorylation, which is a measure of the inhibition of Cdk activity, was determined according to the following formula: […]
(§4) where “test compound” refers to the average counts per minute of the test duplicates, “nonspecific” refers to the average counts per minute when no CyclinD/Cdk4, etc., was added, and “total” refers to the average counts per minute when no compound was added. The IC50 value is the concentration of test compound that reduces by 50% the protein-kinase induced incorporation of the radiolabel under the test conditions described.

The subject of assay [1] is HCT116, a colorectal carcinoma cell line. Nature of the assay: Tetrazolium dye (MTT) proliferation assay. Format: cell-based. The conditions noted are these: Homo sapiens, HCT-116; HCT116 cells. The method, then:
Proliferation was evaluated by the tetrazolium dye assay according to the procedure of Denizot and Lang (Denizot, F. and Lang, R. J Immunol Methods 1986, 89, 271-277). The cell line used was HCT116, a colorectal carcinoma cell line obtained from the American Type Cell Culture Collection (ATCC; Rockville, Md.). The cells were grown in McCoy's 5A medium supplemented with 10% FCS and L-glutamine.
Cells were plated at the appropriate seeding density to give logarithmic growth over the course of the assay in a 96-well tissue culture plate. Plates were incubated overnight at 37° C. in a humidified incubator with 5% CO2. The next day, test compounds were serially diluted to four times the final concentration in the appropriate medium containing 1.2% DMSO. One-fourth final volume of each dilution was added in duplicate to the plates containing cells. The same volume of 1.2% DMSO in medium was added to a row of “control wells” such that the final concentration of DMSO in each well was 0.3%. Wells to which no cells were added served as the “blank.” Wells to which no inhibitor was added served as “no inhibitor control.” The plates were) returned to the incubator, and at set time points (determined by their growth curves) plates were analyzed as described below.
3-(4,5-dimethylthiazole-2-yl)-2,5-diphenyl-2H-tetrazolium bromide (thiazolyl blue; MTT; Sigma) was added to each well to yield a final concentration of 1 mg/ml. Plates were returned to the incubator for 2.5-3 hours at 37° C. The MTT-containing medium was removed and the resulting formazan metabolite was solubilized in 100% ethanol with shaking for 15 minutes at room temperature. Absorbance readings were taken in a microtiter plate reader (Dynatech and Molecular Devices plate readers were used interchangeably) at a wavelength of 570 nm with a 650 nm reference. Percent inhibition (% INH) is calculated by subtracting the absorbance of the blank well from all wells, then subtracting the ratio of the average absorbance of each test duplicate (SAVE) by the average of the controls (CAVE) from 1.00. The final number is then multiplied by 100 (% INH=(1.00−SAVE/CAVE)×100). The concentration at which 50% inhibition of cell proliferation is obtained (the IC50) is determined from the linear regression of a plot of the logarithm of the concentration versus percent inhibition.

In a further assay the target is human cyclin E-Cdk2 (Homo sapiens, UniProt P24941). As to the kind of experiment: Cdk2 FlashPlate kinase assay (Rb phosphorylation). The class given is biochemical. The conditions noted are these: recombinant cyclin E-Cdk2, Rb substrate, 1 μM ATP. As to the method:
as §1, §2, §3, §4

For a further assay, the target named is human cyclin B-Cdk1 (Homo sapiens, UniProt P06493). Nature of the assay: Cdk1 FlashPlate kinase assay (Rb phosphorylation). The class given is biochemical. The conditions noted are these: recombinant cyclin B-Cdk1, Rb substrate, 1 μM ATP. The method, then:
as §1, §2, §3, §4

human cyclin B-Cdk1, sequence (P06493 whole entry): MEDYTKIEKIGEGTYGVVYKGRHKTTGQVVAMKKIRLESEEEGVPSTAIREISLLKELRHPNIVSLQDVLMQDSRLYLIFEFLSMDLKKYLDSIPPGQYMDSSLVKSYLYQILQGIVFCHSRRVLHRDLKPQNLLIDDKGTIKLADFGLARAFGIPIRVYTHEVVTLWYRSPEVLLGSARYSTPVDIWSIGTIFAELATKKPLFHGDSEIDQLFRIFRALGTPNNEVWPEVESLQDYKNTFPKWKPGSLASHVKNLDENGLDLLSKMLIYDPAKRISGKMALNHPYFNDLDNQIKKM
human cyclin B-Cdk1, sequence (P14635 whole entry partner): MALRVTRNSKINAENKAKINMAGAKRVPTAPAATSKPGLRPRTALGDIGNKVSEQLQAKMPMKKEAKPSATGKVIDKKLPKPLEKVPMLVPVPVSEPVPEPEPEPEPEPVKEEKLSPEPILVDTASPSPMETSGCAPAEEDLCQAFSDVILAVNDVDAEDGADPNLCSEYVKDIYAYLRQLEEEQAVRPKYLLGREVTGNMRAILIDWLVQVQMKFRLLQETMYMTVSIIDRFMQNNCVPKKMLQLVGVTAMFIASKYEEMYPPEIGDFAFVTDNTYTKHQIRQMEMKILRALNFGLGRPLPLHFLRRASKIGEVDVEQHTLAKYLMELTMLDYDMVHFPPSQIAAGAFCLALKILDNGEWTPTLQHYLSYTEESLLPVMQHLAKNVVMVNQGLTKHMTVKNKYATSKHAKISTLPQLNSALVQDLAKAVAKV
human cyclin D1-Cdk4, sequence (P11802 whole entry): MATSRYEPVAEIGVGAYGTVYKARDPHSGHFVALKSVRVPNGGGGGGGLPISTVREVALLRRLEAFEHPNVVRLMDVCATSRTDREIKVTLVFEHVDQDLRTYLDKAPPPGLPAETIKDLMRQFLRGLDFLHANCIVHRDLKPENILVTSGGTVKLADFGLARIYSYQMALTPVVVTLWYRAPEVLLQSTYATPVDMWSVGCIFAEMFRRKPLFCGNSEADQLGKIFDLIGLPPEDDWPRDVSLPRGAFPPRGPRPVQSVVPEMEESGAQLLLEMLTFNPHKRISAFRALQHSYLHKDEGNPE
human cyclin D1-Cdk4, sequence (P24385 whole entry partner): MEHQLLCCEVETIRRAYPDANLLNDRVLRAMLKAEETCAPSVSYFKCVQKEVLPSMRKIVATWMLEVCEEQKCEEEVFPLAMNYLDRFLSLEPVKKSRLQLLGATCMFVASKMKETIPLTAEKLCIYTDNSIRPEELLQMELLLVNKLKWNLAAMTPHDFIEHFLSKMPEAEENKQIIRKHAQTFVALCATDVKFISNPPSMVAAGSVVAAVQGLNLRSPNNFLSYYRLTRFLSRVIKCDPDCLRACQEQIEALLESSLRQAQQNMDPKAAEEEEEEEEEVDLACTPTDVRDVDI

In the case of `COc1ccc(F)c(F)c1-c1n[nH]c2nc(NC3CCN(S(C)(=O)=O)CC3)ncc12` [Example 16, [3-(2,3-Difluoro-6-methoxy-phenyl)-1H-pyrazolo[3,4-d]pyrimidin-6-yl]-(1-methanesulfonyl-piperidin-4-yl)-amine], the IC50 on human cyclin D1-Cdk4 was 41 nM; in assay [1], 4500 nM; at human cyclin E-Cdk2, 244 nM.

For the compound `CS(=O)(=O)N1CCC(Nc2ncc3cn[nH]c3n2)CC1` [Example 19], the IC50 at human cyclin B-Cdk1 is 231 nM; in assay [1] it was 9160 nM; at human cyclin E-Cdk2, 33 nM.

In the case of `Cc1n[nH]c2nc(NC3CCN(C)CC3)ncc12` [Example 23], the IC50 is 1460 nM at human cyclin B-Cdk1 and 278 nM on human cyclin E-Cdk2.

Consider `COc1ccc(F)cc1-c1n[nH]c2nc(NC3CCN(S(C)(=O)=O)CC3)ncc12` [Example 25, [3-(5-Fluoro-2-methoxy-phenyl)-1H-pyrazolo[3,4-d]pyrimidin-6-yl]-(1-methanesulfonyl-piperidin-4-yl)-amine], for which the IC50 turned out to be 42 nM at human cyclin D1-Cdk4 and 77 nM at human cyclin E-Cdk2.

With `COc1ccc(F)cc1-c1n[nH]c2nc(N[C@H]3CCN(S(C)(=O)=O)C[C@@H]3O)ncc12` [Example 27], the IC50 on human cyclin D1-Cdk4 amounted to 4 nM; in assay [1], 1700 nM; on human cyclin E-Cdk2 it was 275 nM.

`COc1ccccc1-c1n[nH]c2nc(NC3CCN(S(C)(=O)=O)CC3)ncc12` [Example 28]: the IC50 is 14 nM on human cyclin D1-Cdk4, 107 nM at human cyclin B-Cdk1, 1200 nM in assay [1] and 18 nM at human cyclin E-Cdk2.

On to `CS(=O)(=O)N1CCC(Nc2ncc3c(-c4c(F)cccc4F)n[nH]c3n2)CC1` [Example 29, [3-(2,6-Difluoro-phenyl)-1H-pyrazolo[3,4-d]pyrimidin-6-yl]-(1-methanesulfonyl-piperidin-4-yl)-amine], for which the IC50 came to 867 nM on human cyclin B-Cdk1, 32000 nM in assay [1] and 278 nM at human cyclin E-Cdk2.

Take `CS(=O)(=O)N1CCC(Nc2ncc3c(-c4ccccc4)n[nH]c3n2)CC1` [Example 30, (1-Methanesulfonyl-piperidin-4-yl)-(3-phenyl-1H-pyrazolo[3,4-d]pyrimidin-6-yl)-amine]: the half-inhibitory concentration (IC50) at human cyclin D1-Cdk4 was 128 nM; at human cyclin B-Cdk1, 262 nM; in assay [1], 3930 nM; at human cyclin E-Cdk2 it was 179 nM.

On to `COc1ccccc1-c1n[nH]c2nc(Nc3ccc(S(N)(=O)=O)cc3)ncc12` [Example 32, 4-[3-(2-Methoxy-phenyl)-1H-pyrazolo[3,4-d]pyrimidin-6-ylamino]-benzenesulfonamide; compound with trifluoro-acetic acid], for which the results for the IC50 on human cyclin D1-Cdk4 and on human cyclin E-Cdk2 were 36 nM and 9 nM, respectively.

In the case of `Fc1ccc(Nc2ncc3c(-c4c(F)cccc4F)n[nH]c3n2)cc1` [Example 33, [3-(2,6-Difluoro-phenyl)-1H-pyrazolo[3,4-d]pyrimidin-6-yl]-(4-fluoro-phenyl)-amine], the half-inhibitory concentration (IC50) at human cyclin D1-Cdk4 and at human cyclin E-Cdk2 was 2500 nM each time.

As to `COc1ccccc1-c1n[nH]c2nc(NCCO)ncc12` [Example 34, 2-[3-(2-Methoxy-phenyl)-1H-pyrazolo[3,4-d]pyrimidin-6-ylamino]-ethanol], the IC50 amounted to 344 nM on human cyclin D1-Cdk4 and 594 nM at human cyclin E-Cdk2.

Consider `COc1ccccc1-c1n[nH]c2nc(NCCCCCN)ncc12` [Example 35, [3-(2-Methoxy-phenyl)-1H-pyrazolo[3,4-d]pyrimidin-6-yl]-pentane-1,5-diamine; compound with trifluoro-acetic acid], for which the 50% inhibitory concentration (IC50) on human cyclin D1-Cdk4 stood at 1120 nM; at human cyclin E-Cdk2 it was 1850 nM.

Regarding `COc1ccccc1-c1n[nH]c2nc(NCCCN(C)C)ncc12` [Example 36, N′-[3-(2-Methoxy-phenyl)-1H-pyrazolo[3,4-d]pyrimidin-6-yl]-N,N-dimethyl-propane-1,3-diamine], the IC50 on human cyclin E-Cdk2 is 278 nM.

For `COc1ccccc1-c1n[nH]c2nc(NCCCCCN(C)C)ncc12` [Example 37, N-[3-(2-Methoxy-phenyl)-1H-pyrazolo[3,4-d]pyrimidin-6-yl]-N,N-dimethyl-pentane-1,5-diamine; compound with trifluoro-acetic acid], on human cyclin E-Cdk2, the IC50 was 278 nM.

Regarding `COc1ccccc1-c1n[nH]c2nc(Nc3ccccc3)ncc12` [Example 38, [3-(2-Methoxy-phenyl)-1H-pyrazolo[3,4-d]pyrimidin-6-yl]-phenyl-amine], at human cyclin E-Cdk2, the half-maximal inhibitory concentration (IC50) worked out at 278 nM.

In the case of `COc1ccc(Nc2ncc3c(-c4ccccc4OC)n[nH]c3n2)cc1` [Example 39, (4-Methoxy-phenyl)-[3-(2-methoxy-phenyl)-1H-pyrazolo[3,4-d]pyrimidin-6-y]-amine; compound with trifluoro-acetic acid], the IC50 at human cyclin E-Cdk2 is 278 nM.

As for `COc1ccccc1Nc1ncc2c(-c3c(F)cccc3F)n[nH]c2n1` [Example 40, [3-(2,6-Difluoro-phenyl)-1H-pyrazolo[3,4-d]pyrimidin-6-yl]-(2-methoxy-phenyl)-amine; compound with trifluoro-acetic acid], at human cyclin E-Cdk2, the IC50 was 278 nM.

In the case of `Cc1n[nH]c2nc(Nc3ccc(S(N)(=O)=O)cc3)ncc12` [Example 41, 4-(3-Methyl-1H-pyrazolo[3,4-d]pyrimidin-6-ylamino)-benzenesulfonamide; compound with trifluoro-acetic acid], at human cyclin E-Cdk2, the IC50 was 24 nM.

Regarding `Cc1n[nH]c2nc(NCCO)ncc12` [Example 42, 2-(3-Methyl-1H-pyrazolo[3,4-d]pyrimidin-6-ylamino)-ethanol; compound with trifluoro-acetic acid], at human cyclin E-Cdk2, the IC50 was 278 nM.

As to `CCOC(=O)N1CCC(Nc2ncc3c(-c4cccc(F)c4)n[nH]c3n2)CC1` [Example 43, 4-[3-(3-Fluoro-phenyl)-1H-pyrazolo[3,4-d]pyrimidin-6-ylamino]-piperidine-1-carboxylic acid ethyl ester; compound with trifluoro-acetic acid], on human cyclin E-Cdk2, the IC50 was 278 nM.

For orientation: IC50 means the concentration needed to halve the response being measured.
